What all share (test): ≥ marks a high value that may be exact or a test limit, other limits are often not marked, values filed in µg/mL are converted to µM
Experiment [1] relates to Pseudomonas aeruginosa ATCC 27853.
The test system of experiment [2] is Candida albicans.
Experiment [3] has as its system Staphylococcus aureus ATCC 25923.
In experiment [4] the test system is Escherichia coli ATCC 25922.
In experiment [5] the test system is Candida albicans ATCC 1023.
The test system of experiment [6] is Micrococcus luteus A270.
The test system of experiment [7] is Enterobacter cloacae beta-12.
Experiment [8] concerns Candida albicans MDM8.
Experiment [9] concerns Candida tropicalis IOC 4560.
For experiment [10], the system named is Escherichia coli SBS 363.
The test system of experiment [11] is Bacillus megaterium ATCC 10778.
Experiment [12] relates to Serratia marcescens ATCC 4112.
Experiment [13] deals with Escherichia coli BL21.
Experiment [14] concerns Acinetobacter baumannii.
Experiment [15] deals with Enterobacter cloacae.
The test system of experiment [16] is Escherichia coli KpC+001812446.
Experiment [17] has as its system Pseudomonas aeruginosa PAO1.
In experiment [18] the test system is Pseudomonas aeruginosa PA14.
The subject of experiment [19] is Klebsiella pneumoniae KpC+001825971.
Experiment [20] deals with Klebsiella pneumoniae ATCC 13883.
Experiment [21] relates to Staphylococcus aureus MR.
Experiment [22] concerns Staphylococcus aureus ATCC 12600.
The subject of experiment [23] is Aspergillus niger.
In experiment [24] the test system is Cryptococcus neoformans.
The subject of experiment [25] is Penicillium expansum.
In experiment [26] the test system is Candida albicans ATCC 10231.
Experiment [27] concerns Aureobasidium pullulans.
Experiment [28] relates to Corynebacterium glutamicum ATCC 13032.
Experiment [29] relates to Staphylococcus aureus ATCC 9144.
Experiment [30] has as its system Trichophyton rubrum ATCC 28189.
Experiment [31] has as its system Candida albicans ATCC 24433.
Experiment [32] deals with Candida parapsilosis ATCC 22019.
Experiment [33] concerns Staphylococcus aureus.
Experiment [34] has as its system Escherichia coli.
Experiment [35] deals with Pseudomonas aeruginosa E411-17.
Experiment [36] deals with Staphylococcus aureus M838-17.
For experiment [37], the system named is Klebsiella pneumoniae E406-17.
The subject of experiment [38] is Escherichia coli ATCC 11775.
The subject of experiment [39] is Escherichia coli ATCC 35218.
The test system of experiment [40] is Escherichia coli ATCC 43827.
Experiment [41] deals with Escherichia coli ESBL.
Experiment [42] relates to Escherichia coli ESBL 4.

Converted amounts (≈) assume the structure as drawn.

On to `CC[C@H](C)[C@H](NC(=O)CN)C(=O)N[C@@H](CC(C)C)C(=O)N[C@@H](CC(=O)O)C(=O)N[C@@H](C)C(=O)N[C@H](C(=O)N[C@@H](CCCCN)C(=O)N[C@@H](C)C(=O)N[C@H](C(=O)N[C@@H](C)C(=O)N[C@@H](CCCCN)C(=O)N[C@@H](C)C(=O)N[C@@H](C)C(=O)NCC(N)=O)[C@@H](C)CC)[C@@H](C)CC` [GILDAIKAIAKAAG], for which the MIC (commonly the smallest concentration in the dilution series that meets the test's criterion for growth inhibition) was 48.8 µM (≈ 64 µg/mL) in experiment [1]; 195 µM (≈ 256 µg/mL) in experiment [2]; 6.1 µM (≈ 7.99 µg/mL) in experiment [3]; 24.4 µM (≈ 32 µg/mL) in experiment [4]; ≥ 195 µM in experiment [5].

`CC(C)C[C@H](NC(=O)CN)C(=O)NCC(=O)N[C@@H](C)C(=O)N[C@@H](CC(C)C)C(=O)N[C@@H](Cc1c[nH]c2ccccc12)C(=O)N[C@@H](CC(N)=O)C(=O)N[C@H](C(=O)N[C@@H](C)C(=O)N[C@@H](CCCCN)C(=O)N[C@@H](CO)C(=O)N[C@H](C(=O)N[C@@H](Cc1ccccc1)C(N)=O)C(C)C)C(C)C` [GLGALWNVAKSVF]: the minimum inhibitory concentration (MIC) in experiment [6] is 0.8 µM (≈ 1.09 µg/mL); in [1], > 50 µM; in experiment [7], ≥ 50 µM; in experiment [8], 25 µM (≈ 34 µg/mL); in [9] it was 25 µM (≈ 34 µg/mL); in experiment [10], ≥ 50 µM. In addition, the MIC in [11] was determined as 3.1 µM (≈ 4.22 µg/mL); in experiment [12] it was 0.8 µM (≈ 1.09 µg/mL).

For `CC[C@H](C)[C@H](N)C(=O)N[C@@H](CC(N)=O)C(=O)N[C@@H](CC(C)C)C(=O)N[C@@H](CCCCN)C(=O)N[C@@H](CCCCN)C(=O)N[C@@H](CC(C)C)C(=O)N[C@@H](C)C(=O)N[C@@H](C)C(=O)N[C@@H](CCCN=C(N)N)C(=O)N[C@H](C(=O)N[C@@H](CCCCN)C(=O)N[C@@H](CCCCN)C(=O)N[C@@H](CCCCN)C(=O)N[C@H](C(N)=O)[C@@H](C)CC)[C@@H](C)CC` [INLKKLAARIKKKI], the MIC was 2 µM (≈ 3.27 µg/mL) in [13]; ≥ 32 µM in experiment [14]; ≥ 32 µM in [15]; 8 µM (≈ 13.1 µg/mL) in [16]; 4 µM (≈ 6.54 µg/mL) in experiment [17]; 4 µM (≈ 6.54 µg/mL) in experiment [18]. Moreover, the MIC in experiment [3] was 8 µM (≈ 13.1 µg/mL); in [19] it was ≥ 32 µM; in experiment [20] it was ≥ 32 µM; in [4] it was 4 µM (≈ 6.54 µg/mL); in [21] it was 8 µM (≈ 13.1 µg/mL); in experiment [22], 4 µM (≈ 6.54 µg/mL).

`CSCC[C@H](NC(=O)CNC(=O)[C@H](CC(C)C)NC(=O)[C@H](Cc1ccccc1)NC(=O)CNC(=O)[C@H](CO)NC(=O)[C@@H]1CCCN1C(=O)CN)C(=O)N[C@@H](CCCN=C(N)N)C(=O)O` [GPSGFLGMR]: the MIC was ≥ 128 µM in [6]; 64 µM (≈ 58.9 µg/mL) in experiment [1]; ≥ 128 µM in experiment [23]; ≥ 100 µM in experiment [10]; ≥ 128 µM in experiment [24]; ≥ 128 µM in experiment [25].

Take `CC(C)[C@H](NC(=O)[C@H](CCCCN)NC(=O)[C@H](C)NC(=O)[C@@H](NC(=O)[C@@H](NC(=O)[C@H](CCCN=C(N)N)NC(=O)[C@H](CCCN=C(N)N)NC(=O)[C@H](Cc1c[nH]c2ccccc12)NC(=O)[C@H](Cc1c[nH]c2ccccc12)NC(=O)CN)[C@@H](C)O)C(C)C)C(=O)N[C@@H](CCCN=C(N)N)C(=O)N[C@@H](C)C(N)=O` [GWWRRTVAKVRA]: the MIC in [26] is 25 µM (≈ 37.1 µg/mL); in experiment [1], 6.3 µM (≈ 9.35 µg/mL); in experiment [27], ≥ 50 µM; in experiment [4], 6.3 µM (≈ 9.35 µg/mL); in experiment [28], 0.8 µM (≈ 1.19 µg/mL); in [29], ≥ 50 µM.

As to `CC[C@H](C)[C@H](NC(=O)[C@H](CC(C)C)NC(=O)[C@H](CCC(N)=O)NC(=O)[C@H](CO)NC(=O)[C@H](CCCN=C(N)N)NC(=O)[C@@H](N)CO)C(=O)N[C@H](C(=O)N[C@@H](Cc1cnc[nH]1)C(=O)N[C@@H](CCC(N)=O)C(=O)N[C@@H](CCCN=C(N)N)C(=O)N[C@@H](CC(C)C)C(=O)N[C@@H](Cc1ccccc1)C(N)=O)C(C)C` [SRSQLIVHQRLF], the MIC in experiment [30] is ≥ 270 µM; in experiment [31], ≥ 270 µM; in experiment [32], ≥ 270 µM; in experiment [33] it was > 270 µM; in experiment [34], > 270 µM.

As to `CC(C)C[C@H](NC(=O)[C@H](Cc1c[nH]c2ccccc12)NC(=O)[C@H](Cc1c[nH]c2ccccc12)NC(=O)[C@H](Cc1c[nH]c2ccccc12)NC(=O)[C@H](Cc1c[nH]c2ccccc12)NC(=O)[C@H](CCCN=C(N)N)NC(=O)[C@H](CCCN=C(N)N)NC(=O)[C@@H](N)CCCN=C(N)N)C(N)=O` [RRRWWWWL], the MIC in experiment [35] is 6.25 µM (≈ 8.4 µg/mL); in [36], 3.1 µM (≈ 4.17 µg/mL); in experiment [37] it was 6.25 µM (≈ 8.4 µg/mL).

On to `CC[C@H](C)[C@H](NC(=O)[C@H](Cc1ccc(O)cc1)NC(=O)[C@H](CCC(N)=O)NC(=O)[C@H](CC(C)C)NC(=O)[C@H](C)NC(=O)[C@H](CCCCN)NC(=O)[C@H](CCCCN)NC(=O)[C@H](CCSC)NC(=O)[C@H](CCCCN)NC(=O)[C@@H](N)CCCCN)C(=O)N[C@@H](CCCCN)C(=O)N[C@@H](CC(C)C)C(=O)N[C@@H](CC(C)C)C(=O)N[C@@H](CCCCN)C(N)=O` [KKMKKALQYIKLLK], for which the MIC in [38] is ≥ 100 µM; in experiment [1], > 100 µM; in [4], 50 µM (≈ 86.6 µg/mL); in experiment [39] it was 25 µM (≈ 43.3 µg/mL); in experiment [40], 25 µM (≈ 43.3 µg/mL); in experiment [41], 25 µM (≈ 43.3 µg/mL). Besides, in [42], the MIC is ≥ 100 µM.

The values above are taken from DBAASP.
